# Experimental data: patent US20180188258A1, “MARKER FOR HETEROGENEITY OF CANCER TISSUE, AND USE THEREOF” (Keio University, priority 2015, published 2018)
# Tested on: cancer tissue of the Mix mouse (MDA-MB-231 + HCC1937 cells) and of the 231 mouse (MDA-MB-231 cells)
# Experiment: Study on therapeutic effects by anticancer drug in tumor-bearing mice (tumor volume over time)
# Format: in vivo
# Details: Paclitaxel 3 mg/kg intraperitoneally once a week; Mix mouse compared with 231 mouse; BALB/c-nu; control physiological saline
# Excerpt: The MDA-MB-231 cell line and the HCC1937 cell line were mixed so that the cell number of the HCC1937 cell line was larger than the cell number of the MDA-MB-231 cell line, preferably the cell number of HCC1937 cell line:cell number of MDA-231 cell line was a ratio of 2:1 or more, for example, 9:1. Then, the cell mixture was transplanted into the fourth mammary gland adipose tissue of an immunodeficient mouse (4 weeks old, female, BALB/c-nu) to thereby construct a tumor-bearing mouse (hereinafter, sometimes referred to as “Mix mouse”). Only the MDA-MB-231 cell line and only the HCC1937 cell line were respectively transplanted into the fourth mammary gland adipose tissue of an immunodeficient mouse (4 weeks old, female, BALB/c-nu) to thereby construct tumor-bearing mice (hereinafter, sometimes referred to as “231 mouse” and “1937 mouse”, respectively) as controls.
# Paclitaxel (3 mg/kg) was administered intraperitoneally once a week to Mix mouse and 231 mouse constructed in the same manner as in Experimental Example 2, the tumor diameter was measured with time, and temporal changes in tumor volume were observed (n=5 in each case). As controls, temporal changes in tumor volume were also observed for the groups (control groups) in which physiological saline was administered intraperitoneally in place of paclitaxel (n=5 in each case). […]
compound,measurement,value
CC(=O)O[C@H]1C(=O)[C@@]2(C)[C@H]([C@H](OC(=O)c3ccccc3)[C@]3(O)C[C@H](OC(=O)[C@H](O)[C@@H](NC(=O)c4ccccc4)c4ccccc4)C(C)=C1C3(C)C)[C@]1(OC(C)=O)CO[C@@H]1C[C@@H]2O [Paclitaxel],temporal changes in tumor volume (resistance of the cancer tissue to paclitaxel),the cancer tissue of the Mix mouse has higher resistance to paclitaxel than the cancer tissue of the 231 mouse
